One data set is described as follows: DPPH antioxidant assay. The settings on record: 100 μM. The data set is classed as biochemical. How it is done:
The ability of the cannabinoids to act as potential antioxidants was assessed using the 2,2-diphenyl-1-picrylhydrazyl (DPPH) antioxidant assay. The cannabinoids CBDA, CBD, CBDVA, CBDV, CBG, THCV, and the 1:1 CBD:CBDA mixture had the highest antioxidant activities with radical scavenging activities of 38.19%, 48.00%, 43.81%, 44.21%, 44.28%, 45.71%, and 43.74%, respectively.
The 2,2-diphenyl-1-picrylhydrazyl (DPPH) free radical (Alfa Aesar) was prepared at 0.1 mM in ethanol. The cannabinoids were tested at a final concentration of 100 uM. 2 uL of 7.5 mM stock solutions of the cannabinoids to be tested in DMSO were added to 148 uL of 0.1 mM DPPH to achieve a final concentration of 100 μM in the assay. Ascorbic acid (Thermo Scientific) at a final concentration of 10 mg/ml was used as a positive control. The reaction mixture was incubated in the dark at room temperature for 1 hour, the absorbance of the mixture was read at 517 nm using a Spectra Max 5M microplate reader (Molecular Devices, LLC, Sunnyvale, Calif., USA) and the absorbance was converted to percent radical scavenging activity (% RSA) using the following formula: % RSA=[(Absorbance of the control−Absorbance of the sample)/(Absorbance of the control)]×100.
Free radical production occurs when the immune system is activated and antioxidants represent potential effective treatments for inflammatory conditions and autoimmune diseases. […] The DPPH antioxidant assay can be used to measure the ability of a compound to scavenge free radicals by measuring the ability of compounds to hydrogenate and reduce DPPH. The DPPH assay was conducted on CBCA, CBDA, CBDVA, CBGA, CBLA, CBNA, THCVA, and their decarboxylated derivatives as well as the 1:1 CBD:CBDA mixture.

Data set [1] relates to cytokine levels in differentiated THP-1 cells treated with LPS. In words: THP-1 human cellular LPS cytokine assay, four independent experiments, per cytokine. It counts as cell-based. The settings on record: 2 µM; LPS 20 ng/mL.
The test system of data set [2] is cytokines induced in mice by LPS. In words: Mouse LPS cytokine animal model (Example 3), cannabinoids in PB with 5% DMSO. The data set is classed as in vivo. The following applies: 5 mg/kg. The protocol:
This experiment was conducted to compare the ability of CBD, CBDA or the 1:1 equimolar mixture of CBD:CBDA to suppress the induction of cytokines whose expression levels were induced in mice by LPS.
The ability of agents to suppress the immune system can be tested in vivo using an LPS mouse model, in which mice are injected with LPS to cause an immune response (Field et al., 1970; Ghezzi P and Sipe J D, 1988).
Four 20 g female C57BL/6 mice were used per group. The experimental mice were first injected with 0.1 mL of the cannabinoids prepared at 1 mg/mL in phosphate buffer (PB) with 5% DMSO to yield a final dose of 5 mg/kg, followed one hour later by the injection of 0.1 mL of 0.02 mg/mL LPS in PB to yield a final dose of 0.1 mg/kg. Mice injected with 0.1 mL of PB with 5% DMSO and 0.1 mL of PBS served as a non-induced control and mice injected with 0.1 mL of PB with 5% DMSO and 0.1 mL of 0.02 mg/mL LPS in PB served as a LPS untreated control. After allowing two hours for the immune system to be induced by LPS, the mice were then euthanized, heart punctures performed to extract the blood, which was allowed to coagulate on ice for 1 hour before centrifuging to isolate the serum. The levels of 32 of the most common mouse cytokines (Eve Technologies, Calgary, Canada, Table 9) were determined by multi-plex analysis.

For data set [3], the system named is differentiated U-937 cells. In words: Human cellular U-937 autophagy induction assay (anti-LC3). The data set is classed as cell-based. The settings on record: 1.0 μM, 12 hours. How it is done:
The induction of autophagy was monitored using anti-LC3 antibodies to detect LC3 on the autophagosome in human U-937 pro-monocytic histiocytic lymphoma cells (ATCC, Manassas, Va., USA), which generate morphologies characteristic of macrophages upon induction by various stimuli. U-937 cells were cultured in RPMI-1640 medium with L-glutamine and sodium bicarbonate (Sigma-Aldrich, St Louis, Mo.) supplemented with 10% fetal bovine serum (FBS) and 1% penicillin in 25 cm2 tissue flasks at 37° C. in a 5% CO2 humidified atmosphere and passaged every 2-3 days. U-937 cells were seeded in 96 well plates at 5×10^5 cells/mL and stimulated with 100 ng/mL PMA to induce differentiation for 24 hours. The cells were then treated with the various cannabinoids at 1.0 μM concentrations for 12 hours. 30 μM chloroquine was used as a positive control. After treatment, the cells were fixed using 3.7% formaldehyde in PBS for 15 minutes at room temperature and washed with PBS to remove the fixative. Permeabilization reagent (0.2% Triton X-100 in PBS) (Sigma-Aldrich) was added, the cells were incubated for 15 minutes at room temperature and then the cells were washed with PBS to remove the permeabilization reagent. LC3B rabbit polyclonal antibody (Invitrogen) was added at a final concentration of 0.5 μg/ml for 1 hour at room temperature and the cells were washed with PBS remove the primary antibody. Secondary conjugated goat anti-rabbit polyclonal antibody (Thermo Scientific) was then added at a final concentration of 2.0 μg/ml for 1 hour at room temperature. The cells were washed, Hoechst dye was added to stain the nucleus and the cells were imaged using an Arrayscan VTI high-content screening (HCS) reader (Thermo Scientific) with the appropriate filters and the data was analyzed using the vHCS Scan software.
Chloroquine at a concentration of 30 μM was included as a positive control. The ability to induce autophagy was determined as a percentage with respect to the untreated control.

For data set [4] the following is noted: doses up to 100 mg in mice; cited from earlier work.
For data set [5] the following is noted: doses up to 600 mg in humans; cited from earlier work.
Data set [6] has as its system animal or human cells grown via tissue culture. The following applies: cited from earlier work.
Data set [7] deals with cytokine levels in differentiated THP-1 cells treated with LPS. Put plainly: THP-1 human cellular LPS cytokine assay, three independent experiments, total averaged suppression.
Data set [8] relates to cytokines induced in mice by LPS. Put plainly: Mouse LPS cytokine model, Example 6D, ALA, DHA and EPA omega-3 samples. The following applies: mouse, in vivo. It counts as in vivo. How it is done:
A series of experiments using a mouse LPS cytokine animal model were performed. In the mouse LPS cytokine animal model, mice were injected with LPS, which induced the immune response shortly after the mice were injected with one of the potential anti-inflammatory compounds under evaluation (the “test compound”). The efficacy of the test compound was evaluated based on its ability to reduce expression levels of inflammatory cytokines that were elevated due to the immune response. The test compounds included a cannabinoid, an omega fatty acid, and a cannabinoid-omega fatty acid composition.
The mice were intraperitoneally injected with 0.1 mL of the test compound. One hour later, the mice were intraperitoneally injected with 0.1 mL of LPS in phosphate buffered saline (PBS). Four hours later, a heart puncture was performed and the blood was allowed to clot to generate serum. 0.1 mL of the serum was diluted 1:2 with PBS and stored at −80° C. The serum was then sent to a laboratory where a mouse cytokine array/chemokine array 31-plex (MD31) analysis was performed that analyzed the expression levels of the 32 cytokines/chemokines listed in Table 9, above.
For each considered test compound, the ability of the test compound to suppress each inflammatory cytokine was calculated by determining the percent suppression.
36 female C57BL/6 mice that weighed approximately 20 g each were obtained and allowed to acclimate for one week after arrival with unlimited access to food and water. On the day of the study, the mice were weighed and split into eight groups of four mice each so that the average weight of each group was as close as possible to each other.
All of the omega fatty acid samples that were tested were diluted so the dose was 12.5 mg of total omega fatty acids per mouse. […] The omega fatty acids samples tested included: (1) pollock oil, 456 mg/mL omega unsaturated fatty acids. The pollock oil contained a mixture of anti-inflammatory omega-3, omega-7 and omega-9 unsaturated fatty acids. […] (2) Flaxseed oil, 656 mg/mL anti-inflammatory omega unsaturated fatty acids. The flaxseed oil contained a mixture of anti-inflammatory omega-3 and omega-9 unsaturated fatty acids. The omega-3 and omega-9 unsaturated fatty acids constituted 77.6% and […], respectively, of the anti-inflammatory omega fatty acids contained in the flaxseed oil. A 12.5 mg dose contained 9.7 mg of ALA in the triglyceride form. (3) Mono 2:1 DHA:EPA, 744 mg/mL omega-3 unsaturated fatty acids that were primarily DHA or EPA. A 12.5 mg dose contained 7.81 mg of DHA and 3.91 mg of EPA. The omega-3 unsaturated fatty acids were in the free mono form. […] A 12.5 mg dose contained 3.85 mg of DHA and 7.69 mg of EPA. The omega-3 unsaturated fatty acids were in the free mono form. (5) Tri 2:1 DHA:EPA, 678.9 mg/mL omega-3 unsaturated fatty acids that were primarily DHA or EPA. A 12.5 mg dose contained 7.88 mg of DHA and 3.94 mg of EPA. The omega-3 unsaturated fatty acids were in the triglyceride form. (6) Tri 1:2 DHA:EPA, 678.9 mg/mL omega-3 unsaturated fatty acids that were primarily DHA or EPA. A 12.5 mg dose contained 3.60 mg of DHA and 7.19 mg of EPA. The omega-3 unsaturated fatty acids were in the triglyceride form.

For data set [9] the following is noted: rats; cited from earlier work.

Like-named read-outs stand apart in the source and are kept apart here.

Data on four compounds can be found in patent publication US12678451B2, “Cannabinoid and omega fatty acid compositions and methods of using” (GreenWay Herbal Products, LLC, priority 2019, dated 2026).

Regarding `C=C(C)[C@@H]1CCC(C)=C[C@H]1c1c(O)cc(CCCCC)cc1O` [CBD, 2-[(1R,6R)-6-Isopropenyl-3-methyl-2-cyclohexen-1-yl]-5-pentyl-1,3-benzenediol], the “radical scavenging activity compared to the untreated control” value in the data set “DPPH antioxidant assay” is “at least two-fold”. Moreover, the “% RSA (radical scavenging activity)” value in “DPPH antioxidant assay” (1 hour) is given as 48.00%. Besides, in data set [1], the Average cytokine suppression is recorded as 39.62%, the EGF suppression is reported as −5.61%, the FGF-β suppression is 41.85% and the Flt-3L suppression came out at 60.02%. In addition, in data set [1], the G-CSF suppression was determined as 51.32%, the GM-CSF suppression turned out to be 45.16%, the IFNγ suppression is 13.71% and the IL-1α suppression is 55.14%. In data set [1], this compound returned an IL-1β suppression of 71.06%, an IL-4 suppression of 14.63%, an IL-6 suppression of 66.26% and an IL-7 suppression of 18.2%. In [1], the IL-10 suppression stood at 32.42%, the “IL-12 p70 suppression” value was −31.17%, the IL-15 suppression is 62.30% and the IL-18 suppression was determined as 56.90%. In addition, in data set [1], the IP-10 suppression is given as 67.08%, the MCP-1 suppression stood at 43.90%, the MIP-1β suppression was determined as 31.85% and the TNFα suppression is 29.05%. In data set [1], this compound came in with a TNFβ suppression of 68.24%. Also, in data set [2], the Average cytokine suppression was 12.86%, the GM-CSF suppression stood at 34.53%, the IFNγ suppression is recorded as −0.19% and the IL-1β suppression came to 10.58%. Further, in data set [2], the IL-2 suppression is −0.09%, the IL-6 suppression worked out at 4.49%, the “IL-12β p40 suppression” value is listed as 34.89% and the IL-13 suppression is 6.38%. In data set [2], this compound came in with an IL-17 suppression of 7.51%, an IP-10 suppression of 1.72%, a KC suppression of 7.85% and an LIF suppression of 25.24%. Besides, in data set [2], the M-CSF suppression is 7.70%, the MIP-1α suppression stood at 6.69%, the MIP-1β suppression is on record as −0.77% and the MIP-2 suppression is recorded as 34.56%. This compound also registered a TNF-α suppression in data set [2] of 24.74%. The “Fluorescence (LC3)” value in data set [3] is 45.43. For the same compound, the activation at 1 µM in data set [3] (Homo sapiens, U-937, read-out: Induction of autophagy with respect to the untreated control) is -5.84%. In addition, in data set [4], the adverse side effects entry was “no adverse side effects”. In addition, the adverse side effects entry in data set [5] is “no adverse side effects”. Besides, the “dose that can cause significant cytotoxicity” value in data set [6] is listed as “less than 5 μM”. Further, the “effectiveness at reducing elevated cytokine levels relative to dexamethasone” value in data set [7] is reported as “at least half as effective as dexamethasone”. Also, in data set [7] (Homo sapiens, THP-1, 4 h, read-out: % Cytokine Suppression (total averaged)), the inhibition at 2 µM was found to be 33.1%.
Turning to `CC/C=C\C/C=C\C/C=C\C/C=C\C/C=C\C/C=C\CCC(=O)O` [DHA, (4Z,7Z,10Z,13Z,16Z,19Z)-docosa-4,7,10,13,16,19-hexaenoic acid], the “anti-inflammatory capability among ALA, DHA and EPA” value in data set [8] is listed as “highest anti-inflammatory capability”.
As to `C[S+](C)[O-]` [dimethyl sulfoxide], the LD50 in data set [9] is on record as 14,500 mg/kg.
Take `CC(O)CO` (centres unmarked) [propylene glycol]: the LD50 in [9] was 20,000 mg/kg.
